“Also recorded” adds a separate entry of the source. Where two headings read alike, the source gives them in different places.
How the values were obtained:
[1] = tested on: serotonergic binding sites; experiment: Serotonergic receptor binding; conditions: in words
From the text: (§1) As further indication of the psychotropic activity and specificity of the instant compounds, state of the art in vitro central nervous system receptor binding methodology can be employed. Certain compounds (commonly referred to as ligands) have been identified which preferentially bind to specific high affinity sites in brain tissue dealing with psychotropic activity or potential for side effects. Inhibition of radiolabeled ligand binding to such specific high affinity sites is considered a measure of the compound's ability to affect corresponding central nervous system function or cause side effects in vivo. This principal is employed in the following assays which are given by way of example.
Peroutka and Snyder, Molec. Pharmacol.,

[2] = tested on: Dopamine receptor (striatal tissue); experiment: Dopamine (DA) receptor binding vs. [^3 H]spiperone
From the text: as §1, with “Certain compounds (commonly referred to as ligands) have been identified which preferentially bind to specific high affinity sites in brain tissue dealing with psychotropic activity or potential for side effects.” left out
Dopamine Burt, et al., Molec. Pharmacol., 12, 800

[3] = molecular target: Muscarinic Cholinergic receptor; experiment: Muscarinic cholinergic receptor binding
From the text: as §1, with “Certain compounds (commonly referred to as ligands) have been identified which preferentially bind to specific high affinity sites in brain tissue dealing with psychotropic activity or potential for side effects.” left out
Cholinergic Yamamura, et al., Proc. Natn. Acad. Sci.

[4] = tested on: opiate binding sites; experiment: Opiate receptor binding; conditions: in words
From the text: as §1

[5] = Catalepsy; assay type: in vivo, rats; conditions: for ED50: rat, in vivo, po
[6] = tested on: GABA binding sites; experiment: GABA receptor binding; conditions: in words
From the text: as §1

[7] = tested on: norepinephrine lethality (α1-adrenergic blockade); experiment: Inhibition of Norepinephrine (NE) Lethality; assay type: in vivo; conditions: po; read-out: Inhibition of NE Lethality ED50 (alpha-block)
From the text: 5. Inhibition of Norepinephrine Lethality--drug inhibition of the lethality of noradrenergic drug norepinephrine indicates α1 -adrenergic blockade.

[8] = Catalepsy Reversal (neuroleptic-induced catalepsy); assay type: in vivo, rat; conditions: for reversal of neuroleptic-induced catalepsy, potency relative to racemic material: compared with racemic BMY 14802; for Catalepsy Reversal ED50: p.o.
From the text: 4. Catalepsy Reversal--measure of a drug's ability to reverse neuroleptic-induced catalepsy in the rat.

[9] = tested on: α2-adrenergic binding sites; experiment: α2-adrenergic receptor binding; conditions: in words
From the text: as §1
Rosenblatt, et al., Brain Res., 160: 186
(1979); U'Prichard, et al., Science, 199:
197 (1978); U'Prichard, et al., Molec.

[10] = tested on: apomorphine stereotypy (dopaminergic activity); experiment: Inhibition of Apomorphine-Induced (APO) Stereotypy; assay type: in vivo, rats
From the text: 2. Inhibition of Apomorphine-Induced (APO) Stereotype--an assessment of blockade of dopaminergic activity in rats as measured by attentuation of the behavioral syndrome caused by the dopamine agonist, apomorphine. cf. Janssen, et al, Arzneimittel. Forsch., 17, 841 (1966).

[11] = tested on: α1 receptor; experiment: α1 binding vs. [^3 H]WB4101
From the text: as §1, with “Certain compounds (commonly referred to as ligands) have been identified which preferentially bind to specific high affinity sites in brain tissue dealing with psychotropic activity or potential for side effects.” left out

[12] = Conditioned Avoidance Response (CAR); assay type: in vivo, trained fasted rats
From the text: 1. Conditioned Avoidance Response (CAR)--measure of a drug's tranquilizing activity as determined by its attenuation of avoidance response to electrical shock in trained fasted rats. cf: Albert, Pharmacologist, 4, 152 (1962); Wu, et al, J. Med. Chem., 12, 876-881 (1969).

[13] = in rats; compared with racemic BMY 14802; in words
[14] = Rattus norvegicus, po; read-out: Inhibition of APO-Stereotypy ED50
[15] = Rattus norvegicus, po; read-out: CAR ED50

## Cl.OC(CCCN1CCN(c2ncc(F)cn2)CC1)c1ccc(F)cc1 (racemic) [MJ 14802, 4-[4-[5-Fluoro-2-pyrimidinyl]-1-piperazinyl]-1-(4-fluorophenyl)butanol Hydrochloride]
[1]
  activity at serotonergic binding sites: essentially inactive
[2]; in words
  dopamine receptor binding: very weak dopamine receptor binding
[2]; vs. [^3 H]spiperone, read-out: DA Binding (vs. [^3 H]spip.) IC50
  IC50: 6.4 µM
[3]
  IC50: > 1 µM
[3]; in words, Hydrochloride
  activity at cholinergic binding sites: essentially inactive; also recorded: lacks anticholinergic
[4]
  activity at opiate binding sites: essentially inactive
[5]; in words
  catalepsy production: fails to cause catalepsy
[5]
  ED50: > 100 mg/kg
[6]
  activity at GABA binding sites: essentially inactive
[7]
  ED50: > 100 mg/kg
[8]; Rattus norvegicus, po, read-out: Catalepsy Reversal ED50
  ED50: 16.9 mg/kg
[8]; in words
  reversal of neuroleptic-induced catalepsy: reverses neuroleptic-induced catalepsy
[9]
  activity at α2-adrenergic binding sites: essentially inactive
[10]; Rattus norvegicus, po, read-out: Inhibition of APO-Stereotypy ED50
  ED50: 33 mg/kg
[10]; rat, in vivo
  duration of action in the inhibition of apomorphine stereotypy: 4 h
[11]; in words
  α1-adrenergic activity: lacks anticholinergic and α1 -adrenergic activities
[11]; vs. [^3 H]WB4101
  IC50: 0.52 µM
[12]; Rattus norvegicus, po, read-out: CAR ED50
  ED50: 26.4 mg/kg
[12]; rat, in vivo
  duration of action in the inhibition of the CAR: > 7 h

## OC(CCCN1CCN(c2ncc(F)cn2)CC1)c1ccc(F)cc1 (single isomer, unassigned) [(+)-- enantiomer of BMY 14802, (+)--α-(4-Fluorophenyl)-4-(5-fluoro-2-pyrimidinyl)-1-piperazinebutanol Hydrate]
[8]; in words
  reversal of neuroleptic-induced catalepsy, potency relative to racemic material: The converse was true
[10]; [13]
  inhibition of apomorphine stereotypy, potency relative to racemic material: The converse was true

## O.OC(CCCN1CCN(c2ncc(F)cn2)CC1)c1ccc(F)cc1 (single isomer, unassigned) [(-)-- enantiomer, (-)-α-(4-Fluorophenyl)-4-(5-fluoro-2-pyrimidinyl)-1-piperazinebutanol Hydrate]
[8]; in words
  reversal of neuroleptic-induced catalepsy, potency relative to racemic material: less potent
[10]; [13]
  inhibition of apomorphine stereotypy, potency relative to racemic material: more potent than racemic material

## CN1CCN(C2=Nc3cc(Cl)ccc3Nc3ccccc32)CC1 [Clozapine, reference compound]
[5]
  ED50: > 200 mg/kg
[7]
  ED50: 3.5 mg/kg
[8]
  Catalepsy Reversal ED50: I
[10]; [14]
  ED50: 49.2 mg/kg
[12]; [15]
  ED50: 24 mg/kg

## CSc1ccc2c(c1)N(CCC1CCCCN1C)c1ccccc1S2 (stereo not shown) [Thioridazine, reference compound]
[5]
  ED50: 45.2 mg/kg
[7]
  ED50: 2.2 mg/kg
[8]
  Catalepsy Reversal ED50: I
[10]; [14]
  ED50: 280 mg/kg
[12]; [15]
  ED50: 126 mg/kg

## OC(CCCN1CCN(c2ncccn2)CC1)c1ccc(F)cc1 (stereo not shown) [des-fluoro analog of MJ 14802]
[12]; rat, in vivo
  time after which CAR activity is lost: lost after three hours

Source: patent US4605655A, “Antipsychotic 1-fluorophenylbutyl-4-(2-pyrimidinyl)piperazine derivatives” (Bristol-Myers Company, priority 1984, dated 1986)
